What was measured:
[1] = test system: LIV0A07; experiment: TaqMan analysis of CYP3A4/CYP3A7 mRNA in LIV0A07; assay type: cell-based, human
Protocol: (§1) A standard TaqMan protocol was following using a 96 well optical reaction plate (Applied Biosystems, CA, USA). All probes and primers were supplied by MWG-Biotech, Ebersberg, Germany (see table 3). All probes were labelled with 3′TAMRA and 5′FAM. The reaction plate was sealed with optical adhesive cover (Applied Biosystems, CA, USA) and centrifuged for 1 min at 500 g before loading onto the TaqMan machine (ABI prism 7000 sequence detection system) and results analysed with ABI prism 7000 SDS software.

[2] = test system: LIV0A07; experiment: Immunocytochemistry for hepatocyte markers albumin and CK-18; assay type: cell-based, human; details: grown in the absence of 4-OHT for 48 h
Protocol: Immunocytochemistry was used for early assessment of the cell line. […] The human hepatoma cell line HuH7 was used as a positive control for liver markers, while a myc-immortalised neural stem cell line (197VM) cells were used as a negative control.
All staining was performed in multiwell plates using the following method. Medium was aspirated and cells washed once with PBS prior to fixing using 4% paraformaldehyde for 15 min at room temperature. Cells were then washed three times in PBS, before being permeabilised for 15 min using 0.1% triton x-100 in PBS. Cells were washed with PBS once more then blocked for 1 h in 10% normal goat serum (NGS) (Vector Laboratories, CA, USA) in PBS. Primary antibodies were applied in 1% NGS/PBS for 1 h at room temperature. Cells were washed three times in PBS then exposed to the secondary antibody in 1% NGS/PBS for 1 h at room temperature. Cells were washed three times in PBS and Hoechst, a dye that stains DNA, was added for 2 min at room temperature (1:25,000 in PBS). Cells were washed a further three times in PBS and left in the final wash. Analysis was performed using a fluorescence microscope (Leica DMRA). The secondary antibody excited at a wavelength of ˜488 nm and gave emission at ˜525 nm (green emission) while Hoechst excited at ˜350 nm and emitted at ˜425 nm (blue emission).

[3] = test system: LIV0A07; experiment: Cyquant cell proliferation assay; assay type: cell-based, human
Protocol: Growth rate was assessed using the Cyquant cell proliferation assay (Molecular Probes, Paisley, UK). Cells were grown in multiwell plates or 25 cm^2 flasks and experiments were performed according to the manufacturers instructions.
Growth rate was assessed using the Cyquant cell proliferation assay to compare growth of LIV0A07 over 5 days in […] 4-OHT.

[4] = test system: clone 20 hepatocytes (c-myc-ER infected human foetal hepatocytes); experiment: Telomerase assay (Telo TAGGG telomerase PCR ELISA); assay type: cell-based; details: hepatocytes cultured in 0.5-10 μM 4-OHT
Protocol: Cells from clone 20, p2 were cultured in T25 flasks for 1 week in media with 0, 100 nM, 1 μM and 10 μM 4-OHT for 1 week. The cells had been in culture for 2 months. Uninfected hepatocytes from the same liver were also used for the assay. These cells had been in culture for 3 weeks. The assay was performed according to the instructions for the Telo TAGGG telomerase PCR ELISAPWs (Roche). The plate reader GENios (Tecan) was used to analyse the results. Some of the fluorescence values were too high for the plate readers' spectra so a change to the protocol was done and the fluorescence was measured from only ⅓ of the final volume.

[5] = test system: HuH7 cells; experiment: TaqMan analysis of CYP3A4 mRNA in HuH7; assay type: cell-based, human; details: HuH7 samples
Protocol: as §1

[6] = test system: human foetal liver cells; experiment: Neomycin titre and selection; assay type: cell-based; details: 250 μg/ml neomycin, 2 week selection
Protocol: To determine what concentration of neomycin to use on the liver cells exposed to the virus, in order to eliminate all or the majority of non-infected cells, but not the infected cells, a titre of neomycin was set up. Human foetal liver cells from a dissociated liver that had never been exposed to the immortalising virus were plated in 6-well plates and exposed to neomycin concentrations ranging from 0-900 μg/ml for 12 days in triplicate. 100, 500 and 2000 cells/well were plate and the cells were left for 2 days before the neomycin was added. The growth and proliferation of the cells were studied visually with the TMS-F microscope (Nikon). Based on the result from the neomycin titre a concentration of 250 μg/ml neomycin was used for 2 weeks on the liver cells exposed to the immortalising virus.

| Compound | CYP3A7 mRNA level on differentiation ([1]; absence of 4-OHT) | CYP3A4 mRNA level, differentiated vs undifferentiated cultures ([1]; grown in the absence of 4-OHT for 72 h compared to cultures with 4-OHT) | albumin and CK-18 staining, differentiated cultures [2] | proliferation ([3]; 0.1 mM 4-OHT, 5 days) | toxicity to the cells ([3]; 1.0 mM 4-OHT, initial slow proliferation after seeding) | proliferation ([3]; 0.5 and 1.0 mM 4-OHT, 5 days) | optimum concentration for 4-OHT dependent growth ([3]; in the medium, 5 days) | telomerase expression [4] | effect of 4-OHT on CYP3A4 mRNA expression [5] | survival of noninfected cells during selection [6] |
| --- | --- | --- | --- | --- | --- | --- | --- | --- | --- | --- |
| 4-hydroxytamoxifen [4-OHT] | did not display the same differentiation induced increase | approximately 15 fold | slightly stronger | Little proliferation | may be slightly toxic | expanded to a greater extent | 0.5 to 1.0 mM | up regulates telomerase expression | no effect |  |
| NC[C@@H]1O[C@H](O[C@H]2[C@@H](O)[C@H](O[C@@H]3[C@@H](O)[C@H](N)C[C@H](N)[C@H]3O[C@H]3O[C@H](CN)[C@@H](O)[C@H](O)[C@H]3N)O[C@@H]2CO)[C@H](N)[C@@H](O)[C@@H]1O [neomycin, Neomycin] |  |  |  |  |  |  |  |  |  | majority of the noninfected cells died |
